These results are taken from patent US7884262B2, “Modified DMO enzyme and methods of its use” (Monsanto Technology LLC, priority 2006, dated 2011).

Data set [1] deals with nontransgenic tobacco plants. The settings on record: for Herbicide damage symptoms: spray. From the text:
(§1) Plants in the greenhouse were sprayed with solvent and commercial grade dicamba (Clarity; BASF) using a compressed air, motor-driven, track sprayer with a flat-fan 8002E nozzle traveling at 1.87 mph. Additives included; 28% urea ammonium nitrate at 1.25% v/v and nonionic surfactant at 1.0% v/v. The solution containing dicamba at various concentrations was applied at 182 L/ha ([…]). Soybean field plantings were sprayed with Clarity herbicide at 2.8 kg/ha (2.5 lb/ac).
(§2) In this study, the concentration of dicamba employed provided a dose of 1.12 kg/ha. […] In this study, treatments were compared using 2.2 kg/ha dicamba on two T1 tobacco plants, one carrying DMOc lacking a chloroplast transit peptide and the other completely lacking the DMOc gene due to genetic segregation.

The test system of data set [2] is Arabidopsis thaliana expressing the DMOc gene. The settings on record: 1.12 kg/ha.
Excerpt: (§3) Tobacco, tomato, soybeans and Arabidopsis were used for transgenic expression of the genetically engineered DMOc gene and confirmation of dicamba tolerance in plants expressing the gene. The DMOc coding sequence in binary vector pKLP36 was introduced into A. tumefaciens strain C58C1 containing the disarmed Ti plasmid pMP90 (Koncz and Schell, 1986) by triparental mating (Ditta 1980). The resultant transconjugants were used for tobacco (cv Xanthi) and tomato (cv Rutgers) transformation using the leaf disc protocol described by Horsch et al. (Horsch 1985). Arabidopsis thaliana was transformed by the floral dip technique (Clough and Bent, 1998). Transformation of soybean varieties Thorne and NE-3001 was carried out by cotyledonary-node Agrobacterium-mediated transformation system (Zhang et al., 1999).
as §1, §2

Data set [3] relates to DMOc-containing transgenic tobacco plants.
Excerpt: as §3, §1, §2

Data set [4] has as its system Transgenic tomato plants carrying the genetically engineered DMOc gene. The settings on record: first 0.56 kg/ha and subsequently 5.6 kg/ha.
Excerpt: as §3, §1, §2

The test system of a further data set is transgenic soybean lines.
Excerpt: as §3, §1

Data set [5] concerns homoplastidic transgenic tobacco plants containing a chloroplast-encoded dicamba monooxygenase gene.
The nature of data set [6]: DMO activity assay (DCSA formation by HPLC), steady state kinetics, pH and temperature optimum. In kind it is biochemical. How it is done:
Protein concentrations were determined by Bradford assay with rabbit IgG as standard. Proteins were separated by SDS-PAGE and stained with Coomassie Blue. DMO activity was measured by following the formation of DCSA which was separated by HPLC (Waters Corporation, Milford, Mass.) by using a Discovery C18 column (Supelco, Sigma-Aldrich, St. Louis, Mo.). The retention time for DCSA was 8 minutes and for dicamba was 9.5 minutes. For kinetic studies the DCSA was detected and quantified by fluorescence emission at 420 nm (excitation wavelength 310 nm) after separation on the HPLC column from reaction mixture. Set concentrations of DCSA (12 and 24 μM) were used as quantification standards.
Stock solution of dicamba (100, 200, 400, 800, 1000, 2000, 5000, and 10000 μM), 0.1 M KPi pH 7.2, 0.1 M FeSO4, 0.1 M NADH, and 1 M MgCl2 were used. The assays were performed at 30° C. for 20 minutes and the reaction was quenched by addition of 40 μl of H2SO4. For activity measurements DMO was coupled with an excess of purified ferredoxin and reductase from P. maltophilia strain DI-6.
Since the assay for DMO activity was a discontinuous assay, it was important to establish the time for which the assay has to be run in order to obtain meaningful kinetic parameters. The assay thus has to be run under initial condition as the amount of DCSA produced is linear for the time the assay is being run (FIG. 4). […] (FIG. 6).
The Michaelis-Menten parameters were determined by fitting the data to a nonlinear steady-state equation (Equation 1). The data were analyzed using Sigma plot 8.0 (Jandel Scientific). Vo=Vmax*[S]/(Km+[S]) Equation 1
The optimum pH and temperature were also determined for DMOw and DMOc. Optimum pH was measured at 30° C. for 20 minutes and optimum temperature determination was measured also for 20 minutes at pH 7.2 for both forms of the enzyme. The results are summarized in FIGS. 7-9 and are discussed below.

The mark [7] stands for this setting: steady state, substrate dicamba.
The mark [8] stands for this setting: steady state, substrate dicamba, 30° C., 20 minutes.

Values joined by “and” are separate entries in the source; they are usually repeats but may differ in a detail not shown here. Equal values may be shown once. “Also recorded” adds a separate entry of the source. Read-outs that look alike come from different tables or passages of the source.

For the molecule `COc1c(Cl)ccc(Cl)c1C(=O)O` [dicamba, 3,6-dichloro-o-anisic acid], the results for the Herbicide damage symptoms result in data set [1] (0.017 kg/ha), in data set [1] (0.28 kg/ha) and in data set [1] (0.56 kg/ha) were “easily detected”, “quite severe” and “quite severe”, respectively. Besides, in data set [1] (2.2 kg/ha, T1 plant lacking the DMOc gene due to genetic segregation), the “damage caused by dicamba treatment” value is listed as “fully susceptible”. The damage entry in data set [1] (5.6 kg/ha, post-emergence, nontransgenic plant) is “severe damage”; in data set [4], “no damage”; in data set [5] (28 kg/ha (25 lb/ac), T1-T3 progeny), “no apparent damage”; in data set [5] (112 kg/ha), “only transitory damage”; in data set [5] (224 kg/ha), “only transitory damage”. The tolerance result in data set [2] is on record as “strong tolerance”; in the data set on transgenic soybean lines (2.8 kg/ha (highest level tested), two years of field trials), “strong tolerance”; in the data set on transgenic soybean lines (2.8 kg/ha, greenhouse, most lines) it was “significant tolerance”; with transgenic soybean lines (5.6 kg/ha, greenhouse, most lines) it was “significant tolerance”. For the same molecule, the symptoms result in data set [3] (5.6 kg/ha, post-emergence) is “few, if any symptoms”. Further, the “dicamba treatment level tolerated” value is listed as at least 5.6 kg/ha in data set [3] (transgenic tobacco expressing DMOc) and 2.8 kg/ha in the data set on transgenic soybean lines (DMOc in nuclear genome of soybean plants). In addition, in data set [5] (DMOc gene in chloroplast genome), the dicamba tolerance level result is given as “at least 28 kg/ha”.

B1: DMOw: unaltered (wild type) dicamba monooxygenase sequence from Pseudomonas maltophilia, strain DI-6; U.S. Pat. No. 7,022,896 (protein, UniProt Q5S3I3 2-339, looked up)
Dicamba O-demethylase, …: TFVRNAWYVAALPEELSEKPLGRTILDTPLALYRQPDGVVAALLDICPHRFAPLSDGILVNGHLQCPYHGLEFDGGGQCVHNPHGNGARPASLNVRSFPVVERDALIWIWPGDPALADPGAIPDFGCRVDPAYRTVGGYGHVDCNYKLLVDNLMDLGHAQYVHRANAQTDAFDRLEREVIVGDGEIQALMKIPGGTPSVLMAKFLRGANTPVDAWNDIRWNKVSAMLNFIAVAPEGTPKEQSIHSRGTHILTPETEASCHYFFGSSRNFGIDDPEMDGVLRSWQAQALVKEDKVVVEAIERRRAYVEANGIRPAMLSCDEAAVRVSREIEKLEQLEAA
Regarding B1, in data set [6] (0.1 M Kpi buffer, 30° C., 20 minutes), the “optimum pH for the assay” value came out at 7.2. The Km – broadly, the substrate concentration at which the rate is half of its maximum – in data set [6] (DMOw, Study no. 1-3) is 49 µM and 46 µM; in data set [6] (Michaelis-Menten parameters), 49 ± 7 µM; in data set [6] (setting [8]), 49 µM. Moreover, the Vmax (usually the rate approached at saturating substrate) in data set [6] (DMOw, Study no. 1-3) was 633 ± 24 nmol/min/mg and 583 ± 18 nmol/min/mg and 590 ± 19 nmol/min/mg; in data set [6] (Michaelis-Menten parameters), 633 ± 24 nmol/min/mg; in data set [6] (setting [7]), 633 ± 24 × 10^−3 U/mg. For the same molecule, the optimum temperature result in data set [6] (pH 7.2, 20 minutes) was “approximately 37 °C”. In addition, in data set [6] (setting [7]), the kcat (as a rule, the maximal rate divided by the concentration of active sites) turned out to be 36.63 s⁻¹.

B2: DMOc: dicamba monooxygenase (DMO) variant comprising a cysteine at position 112 of SEQ ID NO:1 (protein)
chain: MATFVRNAWYVAALPEELSEKPLGRTILDTPLALYRQPDGVVAALLDICPHRFAPLSDGILVNGHLQCPYHGLEFDGGGQCVHNPHGNGARPASLNVRSFPVVERDALIWICPGDPALADPGAIPDFGCRVDPAYRTVGGYGHVDCNYKLLVDNLMDLGHAQYVHRANAQTDAFDRLEREVIVGDGEIQALMKIPGGTPSVLMAKFLRGANTPVDAWNDIRWNKVSAMLNFIAVAPEGTPKEQSIHSRGTHILTPETEASCHYFFGSSRNFGIDDPEMDGVLRSWQAQALVKEDKVVVEAIERRRAYVEANGIRPAMLSCDEAAVRVSREIEKLEQLEAA
For B2, the “catalytic efficiency relative to DMOw” value in data set [6] (DMOc vs DMOw) is listed as “five times better enzyme than DMOw; also recorded: five times more efficient than DMOw”. Moreover, the Km in data set [6] (DMOc, Study no. 1-2) was 21 µM and 20 µM; in data set [6] (Michaelis-Menten parameters), 20.5 ± 5 µM; in data set [6] (setting [8]) it was 20 µM. The maximal velocity (Vmax) in data set [6] (DMOc, Study no. 1-2) is 713 ± 43 nmol/min/mg and 676 ± 37 nmol/min/mg; in data set [6] (Michaelis-Menten parameters), 676 ± 37 nmol/min/mg; in data set [6] (setting [7]), 676 ± 37 × 10^−3 U/mg. For the same molecule, the kcat in data set [6] (setting [7]) came to 70.41 s⁻¹.
